Test system: fasted normal Sprague-Dawley rats
Assay: In vivo hyperglycemic clamp assay (glucose up-take assay)
Parameters: species or system rat
Conditions: 200 mg/dl plasma glucose clamp, 0.3 nmol/kg iv bolus at 60 min
Excerpt: In vivo Hyperglycemic Clamp Assay (Glucose Up-take Assay) Male Sprague-Dawley rats (Charles Rivers) weighing about 350 grams were allowed to acclimate to their surroundings for a week after which they were cannulated under isoflurane inhalation anesthetic. Two catheters were implanted into the jugular vein for infusions of glucose and GLP-1 fragment. Another catheter was implanted into the carotid artery for sampling blood. The catheters were exteriorized through the skin at the vertex of the head, filled with a glycerol/heparin solution (30 ml glycerol/10 ml heparin from a 1000 u/ml stock solution), and closed off with a one centimeter stainless steel plug. The rats were housed individually in wire mesh cages and were fed ad libitum on a standard rat chow diet. Each animal was given at least one week to recover from surgery before testing any GLP-1 fragments for biological activity. The rats were fasted overnight; on the morning of the experiment, sampling tubes were connected to the indwelling catheters, and the tubes were enclosed in a light weight stainless steel spring for protection. The rats were acclimated to their cages for 15 minutes. All experiments were carried out in conscious, free moving rats. A basal blood sample was taken for measurement of insulin and glucose levels at time zero on the timer. The rats were then given a bolus of 20% dextrose to raise plasma glucose to either 150 mg/dl (8.3 mM) or 200 mg/dl (11.2 mM). Plasma glucose levels were maintained at the chosen level by measuring plasma glucose levels approximately every 5 minutes and adjusting the calibrated variable infusion pump as needed to maintain the established blood glucose levels. Blood samples were collected at 45 and 60 minutes for the control period measurements. At 60 minutes into the clamp, 0.3 nmol/kg of the experimental GLP-1 fragment was injected via the jugular vein catheter and flushed with saline. […] The blood samples were centrifuged in a micro centrifuge to separate the plasma component. Plasma glucose was measured on a Beckman Glucose analyzer II using the glucose oxidase method. Plasma insulin was determined by standard radio immunoassay as per the manufacturer's directions (Diagnostic Products Corp.). The activity of the GLP-1 fragment was determined by the percentage change in glucose infusion rate and change in insulin secreted. These two parameters were compared to control rats that received only diluent. Note: This assay is based on reports that GLP-1 insulinotropic action is glucose dependent. The assay protocol eliminates variability due to falling glucose levels in other protocols using the "bolus" method. The hyperglycemic clamp involved administration of variable amounts of glucose (20% dextrose) to maintain glucose at a constant level of 8.3 or 11.2 mM in fasted normal Sprague-Dawley rats. The hyperglycemic clamp is maintained for 1 hour after which the GLP-1 fragment is injected as a bolus through the jugular vein. […] The glucose infusion rate (GIR) in the last 15 minutes of the control period and after the injection of the peptide is calculated. The activity of the peptide is determined by the increase in glucose infusion rate and change in insulin secreted after the injection of the peptide.

CC[C@H](C)[C@H](NC(=O)[C@H](Cc1ccccc1)NC(=O)[C@H](CCC(=O)O)NC(=O)[C@H](CCCCN)NC(=O)[C@H](C)NC(=O)[C@H](C)NC(=O)[C@H](CCC(N)=O)NC(=O)CNC(=O)[C@H](CCC(=O)O)NC(=O)[C@H](CC(C)C)NC(=O)[C@H](Cc1ccc(O)cc1)NC(=O)[C@H](CO)NC(=O)[C@H](CO)NC(=O)[C@@H](NC(=O)[C@H](CC(=O)O)NC(=O)[C@H](CO)NC(=O)[C@@H](NC(=O)[C@H](Cc1ccccc1)NC(=O)[C@@H](NC(=O)CNC(=O)[C@@H](N)CCC(=O)O)[C@@H](C)O)[C@@H](C)O)C(C)C)C(=O)N[C@@H](C)C(=O)N[C@@H](Cc1c[nH]c2ccccc12)C(=O)N[C@@H](CC(C)C)C(=O)N[C@H](C(=O)N[C@@H](CCCCN)C(=O)NCC(=O)N[C@@H](CCCNC(=N)N)C(N)=O)C(C)C [GLP-1(9-36)NH2]
% Change in GIR (time 60 min): 21.936% | Plasma Insulin Change (time 60 min): 2.429 ng/mL | % Change in GIR (time 62 min): -1.287% | Plasma Insulin Change (time 62 min): -0.521 ng/mL | % Change in GIR (time 64 min): 0.635% | Plasma Insulin Change (time 64 min): -0.765 ng/mL | % Change in GIR (time 66 min): 10.697% | Plasma Insulin Change (time 66 min): -0.637 ng/mL | % Change in GIR (time 68 min): 24.584% | Plasma Insulin Change (time 68 min): -0.662 ng/mL | % Change in GIR (time 70 min): 46.387% | Plasma Insulin Change (time 70 min): -0.274 ng/mL | % Change in GIR (time 75 min): 61.185% | Plasma Insulin Change (time 75 min): 0.138 ng/mL | % Change in GIR (time 80 min): 48.254% | Plasma Insulin Change (time 80 min): -0.390 ng/mL | % Change in GIR (time 85 min): 34.689% | Plasma Insulin Change (time 85 min): 0.064 ng/mL | % Change in GIR (time 90 min): 17.272% | Plasma Insulin Change (time 90 min): -0.361 ng/mL | % Change in GIR (time 100 min): 7.537% | Plasma Insulin Change (time 100 min): -0.743 ng/mL | % Change in GIR (time 110 min): -0.920% | Plasma Insulin Change (time 110 min): -0.824 ng/mL | % Change in GIR (time 120 min): 4.716% | Plasma Insulin Change (time 120 min): -0.880 ng/mL | % Change in GIR (time 130 min): 3.818% | Plasma Insulin Change (time 130 min): -0.653 ng/mL | % Change in GIR (time 140 min): -6.783% | Plasma Insulin Change (time 140 min): -0.927 ng/mL | % Change in GIR (time 150 min): 1.333% | Plasma Insulin Change (time 150 min): -0.450 ng/mL
